In US11304957B2, “Substituted quinazolines for inhibiting kinase activity” (NeuPharma, Inc., priority 2013, dated 2022):

Tests used:
Type in all cases: biochemical
[1] = target: FGFR1 (Homo sapiens (Human), UniProt P11362); assay: Z'-LYTE kinase inhibition assay, FGFR1; conditions: read-out: % inhibition FGFR1; heading: % inhibition FGFR1; compound at 0.041 μM
Protocol: (§1) Inhibitory activities of compounds against BTK, EGFR and EGFR mutants (EGFR L858R, EGFR T790M, EGFR L858R/T790M), FGFR1, FGFR2, JAK2, JAK3 and KDR were measured by Invitrogen using Z′-LYTE® Method as briefly described in the following.
(§2) Test Compounds are screened in 1% DMSO (final) in the well. For 10 point titrations, 3-fold serial dilutions are conducted from the starting concentration. All ATP Solutions are diluted to a 4× working concentration in Kinase Buffer (50 mM HEPES pH 7.5, 0.01% BRIJ-35, 10 mM MgCl2, 1 mM EGTA). Peptide/Kinase Mixtures are diluted to a 2× working concentration in the appropriate Kinase Buffers as described below.
(v) Peptide/Kinase Mixtures for Measurement of FGFR1:
The 2×FGFR1/Tyr 04 mixture is prepared in 50 mM HEPES pH 7.5, 0.01% BRIJ-35, 10 mM MgCl2, 4 mM MnCl2, 1 mM EGTA, 2 mM DTT. The final 10 μL Kinase Reaction consists of 0.41-3.5 ng FGFR1 and 2 μM Tyr 04 in 50 mM HEPES pH 7.5, 0.01% BRIJ-35, 10 mM MgCl2, 2 mM MnCl2, 1 mM EGTA, 1 mM DTT. After the 1 hour Kinase Reaction incubation, 5 μL of a 1:64 dilution of Development Reagent B is added.
(§3) Reaction starts by 30-second shaking of mixture consisting of 2.5 μL 4× test compound, 5 μL 2× kinase reaction mixture and 2.5 μL 4×ATP Solution on Bar-coded Corning, low volume NBS, black 384-well plate (Corning Cat. #3676). Then the mixture is incubated for 60-minute at room temperature for the kinase reaction, followed by addition of 5 μL of a 1:1024 dilution of development reagent A and 30-second plate shake. The mixture is then incubated for another 60-minute at room temperature for development reaction. Finally fluorescence is read by plate reader.
(§4) To determine IC50 of a compound against EGFR, EGFR mutant and other kinases, a series of concentrations of the compound were tested for the inhibition. […] The scale utilized in Table 4 is as follows: +++ less than 100 nM, ++ 100-500 nM and + greater than 500 nM.

[2] = target: BTK (Homo sapiens (Human), UniProt Q06187); assay: Z'-LYTE kinase inhibition assay, BTK; conditions: read-out: % inhibition BTK; heading: % inhibition BTK; compound at 0.041 μM
Chain of BTK (Q06187 whole entry): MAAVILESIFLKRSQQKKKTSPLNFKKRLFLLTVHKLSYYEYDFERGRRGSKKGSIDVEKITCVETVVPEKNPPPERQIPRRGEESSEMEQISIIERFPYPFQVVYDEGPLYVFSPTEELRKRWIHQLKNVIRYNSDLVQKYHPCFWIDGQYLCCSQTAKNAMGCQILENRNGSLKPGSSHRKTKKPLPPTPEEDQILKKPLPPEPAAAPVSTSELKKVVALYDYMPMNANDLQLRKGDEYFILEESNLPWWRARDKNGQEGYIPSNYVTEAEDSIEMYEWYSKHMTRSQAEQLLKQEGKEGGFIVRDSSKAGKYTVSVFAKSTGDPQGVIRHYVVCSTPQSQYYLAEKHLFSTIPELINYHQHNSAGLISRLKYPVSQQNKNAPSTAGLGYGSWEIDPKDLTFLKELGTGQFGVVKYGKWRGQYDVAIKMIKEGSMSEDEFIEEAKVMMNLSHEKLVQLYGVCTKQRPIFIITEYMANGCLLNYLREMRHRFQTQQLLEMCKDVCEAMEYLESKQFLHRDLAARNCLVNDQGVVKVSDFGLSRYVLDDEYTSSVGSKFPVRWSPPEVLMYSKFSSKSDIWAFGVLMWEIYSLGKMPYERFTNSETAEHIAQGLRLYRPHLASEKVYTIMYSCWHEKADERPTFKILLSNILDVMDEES
Protocol: as §1, §2
(v) Peptide/Kinase Mixtures for Measurement of BTK:
The 2×BTK/Tyr 01 mixture is prepared in 50 mM HEPES pH 7.5, 0.01% BRIJ-35, 10 mM MgCl2, 1 mM EGTA.
The mixture is then incubated for another 60-minute at room temperature for development reaction. Finally fluorescence is read by plate reader.
as §4

[3] = target: JAK2 (Homo sapiens (Human), UniProt O60674); assay: Z'-LYTE kinase inhibition assay, JAK2; conditions: read-out: % inhibition JAK2; heading: % inhibition JAK2; compound at 0.041 μM
Chain of JAK2 (O60674 whole entry): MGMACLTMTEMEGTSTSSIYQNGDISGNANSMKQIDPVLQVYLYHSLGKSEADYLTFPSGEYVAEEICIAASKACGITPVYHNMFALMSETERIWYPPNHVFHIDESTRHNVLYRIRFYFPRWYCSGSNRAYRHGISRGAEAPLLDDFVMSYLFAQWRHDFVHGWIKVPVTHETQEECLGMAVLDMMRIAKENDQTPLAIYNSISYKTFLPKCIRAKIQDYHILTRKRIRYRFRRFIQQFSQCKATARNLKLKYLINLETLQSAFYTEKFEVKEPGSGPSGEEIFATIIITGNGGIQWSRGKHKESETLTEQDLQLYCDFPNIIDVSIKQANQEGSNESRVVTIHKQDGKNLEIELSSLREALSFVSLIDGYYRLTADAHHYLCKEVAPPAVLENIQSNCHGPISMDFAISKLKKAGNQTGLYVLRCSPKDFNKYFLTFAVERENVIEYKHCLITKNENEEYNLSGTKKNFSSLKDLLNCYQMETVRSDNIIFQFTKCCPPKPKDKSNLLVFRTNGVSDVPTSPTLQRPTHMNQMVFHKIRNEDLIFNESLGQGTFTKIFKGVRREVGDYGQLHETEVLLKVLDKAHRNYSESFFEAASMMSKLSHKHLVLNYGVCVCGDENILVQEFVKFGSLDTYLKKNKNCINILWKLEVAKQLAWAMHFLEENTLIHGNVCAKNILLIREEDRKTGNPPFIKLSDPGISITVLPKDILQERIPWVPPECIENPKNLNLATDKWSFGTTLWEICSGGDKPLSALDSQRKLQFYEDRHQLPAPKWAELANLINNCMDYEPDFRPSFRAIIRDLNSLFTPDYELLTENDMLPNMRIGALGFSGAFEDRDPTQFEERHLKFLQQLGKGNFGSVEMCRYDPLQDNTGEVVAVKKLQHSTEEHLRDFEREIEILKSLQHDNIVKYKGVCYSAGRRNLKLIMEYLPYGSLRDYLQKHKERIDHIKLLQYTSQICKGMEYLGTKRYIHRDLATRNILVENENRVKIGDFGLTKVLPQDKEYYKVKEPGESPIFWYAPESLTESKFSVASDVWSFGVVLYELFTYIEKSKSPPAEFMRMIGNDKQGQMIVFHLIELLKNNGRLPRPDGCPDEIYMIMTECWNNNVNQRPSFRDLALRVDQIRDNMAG
Protocol: as §1, §2
(v) Peptide/Kinase Mixtures for Measurement of JAK2:
The 2×JAK2/Tyr 06 mixture is prepared in 50 mM HEPES pH 7.5, 0.01% BRIJ-35, 10 mM MgCl2, 1 mM EGTA. The final 10 μL Kinase Reaction consists of 0.06-0.81 ng JAK2 and 2 μM Tyr 06 in 50 mM HEPES pH 7.5, 0.01% BRIJ-35, 10 mM MgCl2, 1 mM EGTA. After the 1 hour Kinase Reaction incubation, 5 μL of a 1:64 dilution of Development Reagent A is added.
as §3

[4] = target: EGFR (ErbB1) T790M L858R (Homo sapiens (Human), UniProt P00533, L858R/T790M); assay: Z'-LYTE kinase inhibition assay, EGFR L858R/T790M; conditions: for inhibition at 0.0137 µM: read-out: % inhibition EGFR L858R/T790M (Compound at 0.0137 μM)
Chain of EGFR (ErbB1) T790M L858R (P00533 25-1210 T790M/L858R): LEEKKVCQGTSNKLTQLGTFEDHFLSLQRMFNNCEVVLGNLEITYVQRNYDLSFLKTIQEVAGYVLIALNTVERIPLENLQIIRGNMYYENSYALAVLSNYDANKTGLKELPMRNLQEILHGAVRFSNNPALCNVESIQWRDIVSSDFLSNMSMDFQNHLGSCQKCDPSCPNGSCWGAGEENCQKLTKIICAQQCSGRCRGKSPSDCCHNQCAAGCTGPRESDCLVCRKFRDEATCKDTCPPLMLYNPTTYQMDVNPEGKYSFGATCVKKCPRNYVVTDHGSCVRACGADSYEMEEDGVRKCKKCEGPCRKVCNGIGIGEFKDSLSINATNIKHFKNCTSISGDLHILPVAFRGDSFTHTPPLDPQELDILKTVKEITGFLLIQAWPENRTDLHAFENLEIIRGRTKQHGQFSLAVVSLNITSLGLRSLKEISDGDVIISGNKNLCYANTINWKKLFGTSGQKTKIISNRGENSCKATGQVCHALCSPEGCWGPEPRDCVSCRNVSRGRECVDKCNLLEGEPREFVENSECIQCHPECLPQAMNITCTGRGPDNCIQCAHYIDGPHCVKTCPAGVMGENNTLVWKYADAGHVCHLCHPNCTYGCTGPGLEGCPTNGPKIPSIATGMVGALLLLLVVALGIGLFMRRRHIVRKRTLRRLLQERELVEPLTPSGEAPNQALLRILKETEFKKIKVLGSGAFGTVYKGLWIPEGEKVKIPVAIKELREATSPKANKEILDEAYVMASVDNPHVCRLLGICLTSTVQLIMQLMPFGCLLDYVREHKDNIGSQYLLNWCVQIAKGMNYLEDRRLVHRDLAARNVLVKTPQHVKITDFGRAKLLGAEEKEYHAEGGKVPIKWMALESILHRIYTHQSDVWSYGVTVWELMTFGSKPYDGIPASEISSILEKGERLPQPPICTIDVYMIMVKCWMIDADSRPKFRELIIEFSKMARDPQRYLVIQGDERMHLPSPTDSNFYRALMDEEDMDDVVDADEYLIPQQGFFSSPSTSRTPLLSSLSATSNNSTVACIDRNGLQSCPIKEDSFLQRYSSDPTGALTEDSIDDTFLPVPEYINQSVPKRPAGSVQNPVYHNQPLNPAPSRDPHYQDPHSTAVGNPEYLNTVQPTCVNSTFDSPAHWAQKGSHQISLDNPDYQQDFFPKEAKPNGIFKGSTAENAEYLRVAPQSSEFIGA
Protocol: Inhibitory activities of compounds against BTK, EGFR and EGFR mutants (EGFR L858R, EGFR T790M, EGFR L858R/T790M), FGFR1, FGFR2, JAK2, JAK3 and KDR were measured by Invitrogen using Z'-LYTE® Method as briefly described in the following. Test Compounds are screened in 1% DMSO (final) in the well. For 10 point titrations, 3-fold serial dilutions are conducted from the starting concentration. All ATP Solutions are diluted to a 4× working concentration in Kinase Buffer (50 mM HEPES pH 7.5, 0.01% BRIJ-35, 10 mM MgCl2, 1 mM EGTA). Peptide/Kinase Mixtures are diluted to a 2× working concentration in the appropriate Kinase Buffers as described below. (iv) Peptide/Kinase Mixtures for Measurement of EGFR (ErbB1) T790M L858R: The 2×EGFR (ErbB1) […] mixture is prepared in 50 mM HEPES pH 6.5, 0.01% BRIJ-35, 10 mM MgCl2, 1 mM EGTA, 0.02% NaN3. […] After the 1 hour Kinase Reaction incubation, 5 μL of a 1:64 dilution of Development Reagent B is added. Reaction starts by 30-second shaking of mixture consisting of 2.5 μL 4× test compound, 5 μL 2× kinase reaction mixture and 2.5 μL 4×ATP Solution on Bar-coded Corning, low volume NBS, black 384-well plate (Corning Cat. #3676). Then the mixture is incubated for 60-minute at room temperature for the kinase reaction, followed by addition of 5 μL of a 1:1024 dilution of development reagent A and 30-second plate shake. The mixture is then incubated for another 60-minute at room temperature for development reaction. Finally fluorescence is read by plate reader. To determine IC50 of a compound against EGFR, EGFR mutant and other kinases, a series of concentrations of the compound were tested for the inhibition.

Chain of FGFR1 (P11362 22-822): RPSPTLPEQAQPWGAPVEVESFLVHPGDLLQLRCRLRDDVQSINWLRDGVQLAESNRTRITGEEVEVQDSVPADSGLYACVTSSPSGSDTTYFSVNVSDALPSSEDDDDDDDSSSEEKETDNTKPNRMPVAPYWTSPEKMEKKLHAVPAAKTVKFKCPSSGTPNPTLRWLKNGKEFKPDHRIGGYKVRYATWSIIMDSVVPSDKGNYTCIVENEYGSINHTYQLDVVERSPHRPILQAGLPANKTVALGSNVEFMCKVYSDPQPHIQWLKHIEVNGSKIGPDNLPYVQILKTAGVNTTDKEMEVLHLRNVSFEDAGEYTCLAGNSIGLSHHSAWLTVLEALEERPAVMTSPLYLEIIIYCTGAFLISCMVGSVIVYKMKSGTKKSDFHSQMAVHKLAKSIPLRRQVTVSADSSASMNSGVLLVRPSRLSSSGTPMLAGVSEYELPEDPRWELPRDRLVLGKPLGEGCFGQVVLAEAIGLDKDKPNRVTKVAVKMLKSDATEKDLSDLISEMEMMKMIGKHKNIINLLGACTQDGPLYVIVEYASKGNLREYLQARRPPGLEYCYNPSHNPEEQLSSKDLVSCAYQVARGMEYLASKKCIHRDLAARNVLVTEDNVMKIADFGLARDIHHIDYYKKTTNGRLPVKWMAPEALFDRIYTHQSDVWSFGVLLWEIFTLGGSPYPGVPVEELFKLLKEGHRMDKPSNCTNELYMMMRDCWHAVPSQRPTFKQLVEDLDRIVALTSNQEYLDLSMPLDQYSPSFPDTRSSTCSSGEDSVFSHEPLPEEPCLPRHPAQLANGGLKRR

Structure (SMILES)	inhibition at 0.041 µM [1] [%]	inhibition at 0.041 µM [2] [%]	inhibition at 0.041 µM [3] [%]	inhibition at 0.0137 µM [4] [%]	inhibition at 1 µM ([4]; read-out: % inhibition EGFR L858R/T790M (Compound at 1 μM)) [%]
C=CC(=O)Nc1cccc(-c2cccc3cnc(Nc4ccc(N5CCN(C(C)=O)CC5)nc4)nc23)c1 [Example C036, N-(3-(2-((6-(4-acetylpiperazin-1-yl)pyridin-3-yl)amino)quinazolin-8-yl)phenyl)acrylamide]	< 50				
C=CC(=O)Nc1cccc(-c2cccc3cnc(Nc4ccc(N5CCN(C)CC5)c(OC)c4)nc23)c1 [Example C075, N-(3-(2-((3-methoxy-4-(4-methylpiperazin-1-yl)phenyl)amino)quinazolin-8-yl)phenyl)acrylamide]	> 50				
C=CC(=O)Nc1cccc(-c2cccc3cnc(Nc4ccc(N5CCN(C)CC5)cc4F)nc23)c1 [Example C044, N-(3-(2-((2-fluoro-4-(4-methylpiperazin-1-yl)phenyl)amino)quinazolin-8-yl)phenyl)acrylamide]	< 50				
C=CC(=O)Nc1cccc(-c2cccc3cnc(Nc4ccc(N5CCN(C)CC5)nc4OC)nc23)c1 [Example C055, N-(3-(2-((2-methoxy-6-(4-methylpiperazin-1-yl)pyridin-3-yl)amino)quinazolin-8-yl)phenyl)acrylamide]		< 50	< 50		
C=CC(=O)Nc1cccc(-c2cccc3cnc(Nc4ccc(N5CCN(C(C)=O)CC5)cc4)nc23)c1 [Example C032, N-(3-(2-((4-(4-acetylpiperazin-1-yl)phenyl)amino)quinazolin-8-yl)phenyl)acrylamide]		> 50	> 50	< 50	> 50
C=CC(=O)Nc1cccc(-c2cccc3cnc(Nc4ccc(N5CCN(CCO)CC5)cc4)nc23)c1 [Example C059, N-(3-(2-((4-(4-(2-hydroxyethyl)piperazin-1-yl)phenyl)amino)quinazolin-8-yl)phenyl)acrylamide]	> 50			> 50	
C=CC(=O)Nc1cncc(-c2cccc3cnc(Nc4ccc(N5CCN(C)CC5)cc4)nc23)c1 [Example C040, N-(5-(2-((4-(4-methylpiperazin-1-yl)phenyl)amino)quinazolin-8-yl)pyridin-3-yl)acrylamide]		> 50	< 50	> 50	
C=CC(=O)Nc1cccc(-c2cccc3cnc(Nc4ccc(N5CCN(C)CC5)cc4)nc23)c1 [Example C021, N-(3-(2-((4-(4-methylpiperazin-1-yl)phenyl)amino)quinazolin-8-yl)phenyl)acrylamide]			> 50	> 50	

Now from value to compound, other results behind:

inhibition at 0.041 µM [1] [%]	inhibition at 0.041 µM [2] [%]	inhibition at 0.041 µM [3] [%]	Structure (SMILES)	inhibition at 0.0137 µM [4] [%]	inhibition at 1 µM ([4]; read-out: % inhibition EGFR L858R/T790M (Compound at 1 μM)) [%]
< 50			C=CC(=O)Nc1cccc(-c2cccc3cnc(Nc4ccc(N5CCN(C(C)=O)CC5)cc4)nc23)c1Cl [Example C051, N-(3-(2-((4-(4-acetylpiperazin-1-yl)phenyl)amino)quinazolin-8-yl)-2-chlorophenyl)acrylamide]		
< 50	< 50	< 50	Fc1ccc(OCCN2CCOCC2)cc1-c1cccc2cnc(Nc3ccc(N4CCOCC4)cc3)nc12 [Example C023, 8-(2-fluoro-5-(2-morpholinoethoxy)phenyl)-N-(4-morpholinophenyl)quinazolin-2-amine]		
> 50			Fc1cccc(-c2cccc3cnc(Nc4ccc(N5CCNCC5)cc4)nc23)c1 [Example C027, 8-(3-fluorophenyl)-N-(4-(piperazin-1-yl)phenyl)quinazolin-2-amine]		
	> 50	< 50	C=CC(=O)Nc1cccc(-c2nccc3cnc(Nc4ccc(N5CCOCC5)cc4)nc23)c1 [Example C012, N-(3-(2-((4-morpholinophenyl)amino)pyrido[3,4-d]pyrimidin-8-yl)phenyl)acrylamide]		
	> 50	> 50	C=CC(=O)Nc1cccc(-c2cccc3cnc(Nc4ccc(N5CCN(C)CC5)cc4)nc23)c1Cl [Example C054, N-(2-chloro-3-(2-((4-(4-methylpiperazin-1-yl)phenyl)amino)quinazolin-8-yl)phenyl)acrylamide]		
< 50	< 50		Clc1cccc(-c2cccc3cnc(Nc4ccc(N5CCOCC5)cc4)nc23)c1 [Example C008, 8-(3-chlorophenyl)-N-(4-morpholinophenyl)quinazolin-2-amine]		
> 50	> 50	> 50	C=CC(=O)Nc1cccc(-c2cccc3cnc(Nc4ccc(N5CCOCC5)cc4)nc23)c1 [Example C001, N-(3-(2-((4-morpholinophenyl)amino)quinazolin-8-yl)phenyl)acrylamide]		
	> 50	< 50	C=CC(=O)Nc1cccc(-c2nccc3c(N)nc(Nc4ccc(N5CCOCC5)cc4)nc23)c1 [Example C005, N-(3-(4-amino-2-((4-morpholinophenyl)amino)pyrido[3,4-d]pyrimidin-8-yl)phenyl)acrylamide]		
> 50	> 50	> 50	C=CC(=O)Nc1cccc(-c2cccc3cnc(Nc4ccc(N5CCN(CCF)CC5)cc4)nc23)c1 [Example C053, N-(3-(2-((4-(4-(2-fluoroethyl)piperazin-1-yl)phenyl)amino)quinazolin-8-yl)phenyl)acrylamide]		
